One test relates to LNCaP C4-2B. The test is described as follows: Cytotoxicity against human C4-2B cells after 72 hrs by MTT assay. The test is classed as functional, cell-based.
The next test relates to DU-145. Description: Growth inhibition of human DU145 cells at 2 uM after 72 hrs by MTT assay relative to control. The test is classed as functional. The settings on record: DU-145, 72 h, read-out: GI.

One may read the IC50 as the midpoint of a concentration-inhibition curve. A low value points to greater potency in that assay. As to `C[C@@H]1NC(=O)/C=C/[C@@H](O)CC[C@H](C)NC(=O)[C@H]2C[C@]1(O)NC1=C2C(=O)N[C@@H](C)C1`, the IC50 with LNCaP C4-2B came to 5.4 µM. The inhibition of growth at 2 µM with DU-145 is 4.5%.

For the origin of these results see ChEMBL document CHEMBL4190202, “Gunnilactams A-C, Macrocyclic Tetralactams from the Mycelial Culture of the Entomogenous Fungus Paecilomyces gunnii” (J Nat Prod, 2017).
